From patent US10994015B2, “EGFR proteolysis targeting chimeric molecules and associated methods of use” (Arvinas Operations, Inc., priority 2016, dated 2021) come the findings set out here.

Experiment [1] addresses EGFR-wt (MDA-MB-231 or MCF7 or A549 or OVCAR8) (Homo sapiens (Human), UniProt P00533). Put plainly: EGFR protein degradation assay (Western blot). The settings on record: 72 hours, 300 nM to 10 nM. Format: cell-based. Put shortly: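 EGFR degradation was assessed by Western blot. Cells expressing the appropriate EGFR were seeded in 6-well plates (300,000 cells per well) and adhered overnight. Media was removed, cells were washed with cold phosphate-buffered saline, scraped into 400 μl Cell Signaling lysis buffer plus protease inhibitor cocktail, and spun once at 10 000 rpm for 10 minutes. After BCA quantification, loading buffer and reducing agent were added. Gels loaded with 10 μg protein ran at 165V for 2 hours, and bands were visualized by chemiluminescence.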

In experiment [2] the target is EGFR L858R/T790M/C797S triple mutant (H520*) (Homo sapiens (Human), UniProt P00533, C797S/L858R/T790M). Put plainly: EGFR protein degradation assay (Western blot). It is filed as cell-based. The settings on record: 72 hours, 300 nM to 10 nM. A digest of the protocol:
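EGFR loss in the triple-mutant line measured by immunoblot: clarified lysates normalised by BCA, run on 4-12% Bis-Tris gels, blotted to PVDF, probed with HRP anti-rabbit secondary. Before lysis, cells were dosed from 1, 0.3, 0.1, 0.03 and 0.01 mM DMSO stocks (not final concentrations) after overnight culture at 37° C.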

For experiment [3], the target named is EGFR L858R/T790M double mutant (H1975) (Homo sapiens (Human), UniProt P00533, L858R/T790M). Briefly: EGFR protein degradation assay (Western blot). It is filed as cell-based. Particulars: 72 hours, 300 nM to 10 nM. A digest of the protocol: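 EGFR protein levels were measured by immunoblotting. Lysate protein was quantified by BCA, and 10 μg per sample was separated by SDS/PAGE at 165V for 2 hours and transferred to PVDF. Membranes were blocked in TBS-T with 5% milk for 1 hour, probed overnight at 4° C with EGFR and tubulin antibodies, then secondary antibody for 1 hour, and detected by ECL on a Chemidoc.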

Experiment [4] deals with EGFR Exon20NPG (Homo sapiens (Human), UniProt P00533, INS770NPG). Put plainly: TR-FRET assay for ERBB kinases. Format: biochemical. Particulars: geometric mean if measured more than once. A digest of the protocol: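 Phosphorylation of fluorescein-labeled poly-GluTyr read as TR-FRET using Tb-pY20 antibody after EDTA stop, with 340 nm excitation. Kinase reaction ran 10 min at room temperature following 10 min compound pre-incubation; substrate mix held 3 mM ATP and 30 µM peptide before addition. Buffer was HEPES pH 7.5.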

Experiment [5] has as its target EGFR L858R/T790M (Homo sapiens (Human), UniProt P00533, L858R/T790M). Briefly: TR-FRET assay for ERBB kinases. The settings on record: geometric mean if measured more than once. Format: biochemical. Put shortly: (§1)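 Kinase + cmpd preinc 10 min; start with mix of 3 mM ATP / 30 uM fluorescein poly-GluTyr (mix concs); 10 min RT; stop with 5 nM Tb-pY20 Ab / 40 mM EDTA. Buffer 50 mM HEPES pH 7.5, 10 mM MgCl2.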

The target in experiment [6] is EGFR L858R/T790M/C797S (Homo sapiens (Human), UniProt P00533, C797S/L858R/T790M). Briefly: TR-FRET assay for ERBB kinases. It is filed as biochemical. Particulars: geometric mean if measured more than once. A digest of the protocol: as §1
Experiment [7] deals with EGFR WT (Homo sapiens (Human), UniProt P00533). Briefly: TR-FRET assay for ERBB kinases. It is filed as biochemical. Particulars: geometric mean if measured more than once. Put shortly: as §1

Chain of EGFR L858R/T790M (P00533 25-1210 T790M/L858R): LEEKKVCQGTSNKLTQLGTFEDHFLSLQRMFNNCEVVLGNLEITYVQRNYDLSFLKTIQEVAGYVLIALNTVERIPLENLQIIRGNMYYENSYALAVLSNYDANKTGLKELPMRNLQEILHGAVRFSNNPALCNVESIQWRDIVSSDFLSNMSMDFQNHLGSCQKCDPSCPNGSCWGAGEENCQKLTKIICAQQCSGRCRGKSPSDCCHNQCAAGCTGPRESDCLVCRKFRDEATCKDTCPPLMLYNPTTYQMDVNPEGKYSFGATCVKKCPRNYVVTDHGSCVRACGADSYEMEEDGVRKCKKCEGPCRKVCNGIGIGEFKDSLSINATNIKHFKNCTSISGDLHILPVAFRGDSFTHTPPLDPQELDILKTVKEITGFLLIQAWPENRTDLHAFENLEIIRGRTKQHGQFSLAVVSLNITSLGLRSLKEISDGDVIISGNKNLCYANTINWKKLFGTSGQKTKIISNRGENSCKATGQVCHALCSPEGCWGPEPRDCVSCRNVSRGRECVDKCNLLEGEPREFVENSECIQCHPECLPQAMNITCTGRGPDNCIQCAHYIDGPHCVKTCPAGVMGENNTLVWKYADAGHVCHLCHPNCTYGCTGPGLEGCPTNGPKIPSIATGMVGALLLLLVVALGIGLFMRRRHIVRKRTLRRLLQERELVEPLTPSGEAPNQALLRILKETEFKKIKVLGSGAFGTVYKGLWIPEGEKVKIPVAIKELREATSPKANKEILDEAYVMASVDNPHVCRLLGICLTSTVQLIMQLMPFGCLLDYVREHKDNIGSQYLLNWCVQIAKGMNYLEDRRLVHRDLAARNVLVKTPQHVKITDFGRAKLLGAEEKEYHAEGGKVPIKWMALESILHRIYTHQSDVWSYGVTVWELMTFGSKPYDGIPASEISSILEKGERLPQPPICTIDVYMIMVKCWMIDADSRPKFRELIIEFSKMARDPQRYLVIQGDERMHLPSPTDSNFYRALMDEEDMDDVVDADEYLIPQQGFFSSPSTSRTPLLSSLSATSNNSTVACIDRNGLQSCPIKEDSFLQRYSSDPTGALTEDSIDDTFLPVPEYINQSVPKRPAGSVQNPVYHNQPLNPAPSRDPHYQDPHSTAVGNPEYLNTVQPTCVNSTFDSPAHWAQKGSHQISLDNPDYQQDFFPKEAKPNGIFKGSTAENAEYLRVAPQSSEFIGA
Chain of EGFR L858R/T790M double mutant (H1975) (P00533 25-1210 T790M/L858R): as above
Chain of EGFR Exon20NPG (P00533 other isoform, or with tags, fused parts or gaps del 1-694/ins NPG behind 770 limits assumed): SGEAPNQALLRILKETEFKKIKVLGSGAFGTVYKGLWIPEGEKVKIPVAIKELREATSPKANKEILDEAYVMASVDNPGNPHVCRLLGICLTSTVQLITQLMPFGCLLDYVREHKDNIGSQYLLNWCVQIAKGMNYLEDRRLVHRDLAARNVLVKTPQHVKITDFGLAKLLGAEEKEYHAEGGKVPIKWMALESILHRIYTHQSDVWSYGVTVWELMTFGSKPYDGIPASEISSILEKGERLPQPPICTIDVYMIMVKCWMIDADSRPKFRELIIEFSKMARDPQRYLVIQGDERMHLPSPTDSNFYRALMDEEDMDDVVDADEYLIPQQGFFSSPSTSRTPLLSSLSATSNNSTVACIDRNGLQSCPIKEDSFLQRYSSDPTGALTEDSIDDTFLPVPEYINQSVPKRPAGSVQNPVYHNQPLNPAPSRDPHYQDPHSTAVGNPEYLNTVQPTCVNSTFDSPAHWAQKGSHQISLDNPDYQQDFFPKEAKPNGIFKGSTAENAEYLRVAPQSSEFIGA
Chain of EGFR L858R/T790M/C797S triple mutant (H520*) (P00533 25-1210 T790M/C797S/L858R): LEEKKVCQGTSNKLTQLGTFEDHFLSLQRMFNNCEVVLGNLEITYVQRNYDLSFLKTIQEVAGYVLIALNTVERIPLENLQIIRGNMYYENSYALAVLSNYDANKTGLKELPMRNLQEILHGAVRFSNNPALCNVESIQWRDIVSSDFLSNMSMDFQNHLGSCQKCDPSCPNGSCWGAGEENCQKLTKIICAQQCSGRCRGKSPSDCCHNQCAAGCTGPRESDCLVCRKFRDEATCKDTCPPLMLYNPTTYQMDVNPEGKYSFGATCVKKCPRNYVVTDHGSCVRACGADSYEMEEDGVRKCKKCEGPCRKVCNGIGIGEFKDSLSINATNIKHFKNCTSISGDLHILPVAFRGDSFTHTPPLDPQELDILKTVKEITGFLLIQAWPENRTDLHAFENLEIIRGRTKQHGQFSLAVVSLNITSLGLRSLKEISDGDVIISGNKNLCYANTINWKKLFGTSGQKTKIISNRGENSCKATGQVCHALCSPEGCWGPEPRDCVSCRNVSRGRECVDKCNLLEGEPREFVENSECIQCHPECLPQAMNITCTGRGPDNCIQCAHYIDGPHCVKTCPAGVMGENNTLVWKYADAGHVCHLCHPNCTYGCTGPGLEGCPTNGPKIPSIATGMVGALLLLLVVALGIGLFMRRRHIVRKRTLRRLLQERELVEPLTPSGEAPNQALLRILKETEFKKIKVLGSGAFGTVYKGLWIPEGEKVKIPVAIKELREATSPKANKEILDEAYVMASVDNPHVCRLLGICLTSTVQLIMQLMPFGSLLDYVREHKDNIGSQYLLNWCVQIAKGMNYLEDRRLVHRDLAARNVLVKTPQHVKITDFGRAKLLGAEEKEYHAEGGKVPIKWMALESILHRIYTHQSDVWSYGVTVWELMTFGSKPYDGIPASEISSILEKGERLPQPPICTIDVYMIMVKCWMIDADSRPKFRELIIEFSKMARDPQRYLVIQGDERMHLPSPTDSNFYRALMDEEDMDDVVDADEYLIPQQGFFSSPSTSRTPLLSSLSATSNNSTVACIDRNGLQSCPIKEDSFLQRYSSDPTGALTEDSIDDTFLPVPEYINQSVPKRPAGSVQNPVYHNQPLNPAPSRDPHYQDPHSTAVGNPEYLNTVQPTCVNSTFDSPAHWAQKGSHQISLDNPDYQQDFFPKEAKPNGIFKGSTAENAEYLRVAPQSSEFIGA

With `Cc1ncsc1-c1ccc(CNC(=O)[C@@H]2C[C@@H](O)CN2C(=O)[C@@H](NC(=O)COCCOCCOCCOc2ccc(-c3ccc4ncnc(Nc5ccc(OCc6cccc(F)c6)c(Cl)c5)c4c3)cc2)C(C)(C)C)cc1` [Example 99, (2S,4R)-1-((S)-2-(tert-Butyl)-14-(4-(4-((3-chloro-4-((3-fluorobenzyl)oxy)phenyl)amino)quinazolin-6-yl)phenoxy)-4-oxo-6,9,12-trioxa-3-azatetradecanoyl)-4-hydroxy-N-(4-(4-methylthiazol-5-yl)benzyl)pyrrolidine-2-carboxamide], the “EGFR protein remaining, EGFR-wt” value in experiment [1] is “A (≤50% EGFR protein remaining after 72 hours of incubation with the test compound at a concentration between 300 nM and 10 nM)”.
Same read-out and setting: for `Cc1ncsc1-c1ccc(CNC(=O)[C@H]2C[C@H](O)CN2C(=O)[C@@H](NC(=O)COCCOCCOc2ccc(-c3ccc4ncnc(Nc5ccc(OCc6cccc(F)c6)c(Cl)c5)c4c3)cc2)C(C)(C)C)cc1` [Example 98, (2R,4S)-1-((S)-2-(2-(2-(2-(4-(4-((3-Chloro-4-((3-fluorobenzyl)oxy)phenyl)amino)quinazolin-6-yl)phenoxy)ethoxy)ethoxy)acetamido)-3,3-dimethylbutanoyl)-4-hydroxy-N-(4-(4-methylthiazol-5-yl)benzyl)pyrrolidine-2-carboxamide] the value was “C (>80% EGFR protein remaining after 72 hours of incubation with the test compound at a concentration of 300 nM)”; for `Cc1ncsc1-c1ccc(CNC(=O)[C@@H]2C[C@@H](O)CN2C(=O)[C@@H](NC(=O)COCCOCCOCCOCCOCc2ccc(-c3ccc4ncnc(Nc5ccc(OCc6cccc(F)c6)c(Cl)c5)c4c3)o2)C(C)(C)C)cc1` [Example 320, (2S,4R)-1-((S)-18-(tert-butyl)-1-(5-(4-((3-chloro-4-((3-fluorobenzyl)oxy)phenyl)amino)quinazolin-6-yl)furan-2-yl)-16-oxo-2,5,8,11,14-pentaoxa-17-azanonadecan-19-oyl)-4-hydroxy-N-(4-(4-methylthiazol-5-yl)benzyl)pyrrolidine-2-carboxamide], “A (≤50% EGFR protein remaining after 72 hours of incubation with the test compound at a concentration between 300 nM and 10 nM)”; for `COc1cc2c(Oc3ccc(N(C(=O)C4(C(N)=O)CC4)c4ccc(F)cc4)cc3F)ccnc2cc1OCCCOCCCOCCC(=O)N[C@H](C(=O)N1C[C@@H](O)C[C@H]1C(=O)NCc1ccc(-c2scnc2C)cc1)C(C)(C)C` [Example 351, N-(3-Fluoro-4-((7-(3-(3-(3-(((S)-1-((2S,4S)-4-hydroxy-2-((4-(4-methylthiazol-5-yl)benzyl)carbamoyl)-pyrrolidin-1-yl)-3,3-dimethyl-1-oxobutan-2-yl)amino)-3-oxopropoxy)propoxy)propoxy)-6-methoxyquinolin-4-yl)oxy)phenyl)-N-(4-fluorophenyl)cyclopropane-1,1-dicarboxamide], “C (>80% EGFR protein remaining after 72 hours of incubation with the test compound at a concentration of 300 nM)”.
Turning to `COC1CCN(c2nccc(Nc3cc4c(cn3)nc(COCCOCCN3CCN(CCCCc5ccc6c(c5)C(=O)N(C5CCC(=O)NC5=O)C6=O)CC3)n4C(C)C)n2)CC1` (stereo not shown) [compound 87], in experiment [2], the “EGFR protein remaining, EGFR L858R/T790M/C797S triple mutant” value is “C (>80% EGFR protein remaining after 72 hours of incubation with the test compound at a concentration of 300 nM)”. Also, in experiment [3], the “EGFR protein remaining, EGFR L858R/T790M double mutant” value is “C (>80% EGFR protein remaining after 72 hours of incubation with the test compound at a concentration of 300 nM)”. The IC50 in experiment [4] was 14 µM; in experiment [5] it was 15 µM; in experiment [6], 3.3 µM; in experiment [7], more than 30 µM.
In the case of `Cc1ncsc1-c1ccc(CNC(=O)[C@@H]2C[C@@H](O)CN2C(=O)[C@H](C(C)C)N2Cc3ccccc3C2=O)c(OCCOCCOCCOCCOCC#Cc2cccc3c2C(=O)N([C@@H](C(=O)Nc2nccs2)c2cc(F)ccc2O)C3)c1` [compound 259], in experiment [2], the “EGFR protein remaining, EGFR L858R/T790M/C797S triple mutant” value is given as “C (>80% EGFR protein remaining after 72 hours of incubation with the test compound at a concentration of 300 nM)”. Also, in experiment [3], the “EGFR protein remaining, EGFR L858R/T790M double mutant” value is given as “C (>80% EGFR protein remaining after 72 hours of incubation with the test compound at a concentration of 300 nM)”. Also, the IC50 amounted to 2.1 µM in experiment [4], 3.1 µM in experiment [5], 0.55 µM in experiment [6] and 2.1 µM in experiment [7].
Take `O=C1CCC(N2C(=O)c3cccc(NCCOCCOCCOCC#Cc4cccc5c4C(=O)N([C@@H](C(=O)Nc4nccs4)c4cc(F)ccc4O)C5)c3C2=O)C(=O)N1` (stereo partly shown) [compound 265]: the “EGFR protein remaining, EGFR L858R/T790M/C797S triple mutant” value in experiment [2] is “C (>80% EGFR protein remaining after 72 hours of incubation with the test compound at a concentration of 300 nM)”. Moreover, the “EGFR protein remaining, EGFR L858R/T790M double mutant” value in experiment [3] is “C (>80% EGFR protein remaining after 72 hours of incubation with the test compound at a concentration of 300 nM)”. For the same molecule, the IC50 in experiment [4] stood at 20 µM; in experiment [5] it was 27 µM; in experiment [6], 0.29 µM; in experiment [7], 3.6 µM.
As to `O=C1CCC(N2C(=O)c3ccc(N4CCN(CCCOCCCC#Cc5cccc6c5C(=O)N(C(C(=O)Nc5nccs5)c5cc(F)ccc5O)C6)CC4)cc3C2=O)C(=O)N1` (stereo not shown) [compound 95], the “EGFR protein remaining, EGFR L858R/T790M/C797S triple mutant” value in experiment [2] is recorded as “C (>80% EGFR protein remaining after 72 hours of incubation with the test compound at a concentration of 300 nM)”. In addition, in experiment [3], the “EGFR protein remaining, EGFR L858R/T790M double mutant” value is “C (>80% EGFR protein remaining after 72 hours of incubation with the test compound at a concentration of 300 nM)”. Moreover, the IC50 in experiment [4] was 3.3 µM; in experiment [5], 6.7 µM; in experiment [6], 2.2 µM; in experiment [7] it was 4.2 µM.
On to `Cc1ncsc1-c1ccc(CNC(=O)[C@@H]2C[C@@H](O)CN2C(=O)[C@@H](NC(=O)COCCOCCOCCOCCOCC#Cc2cccc3c2C(=O)N(C(C(=O)Nc2nccs2)c2cc(F)ccc2O)C3)C(C)(C)C)cc1` (stereo partly shown) [compound 255], for which the “EGFR protein remaining, EGFR L858R/T790M/C797S triple mutant” value in experiment [2] is “B (≤80% and >50% EGFR protein remaining after 72 hours of incubation with the test compound at a concentration between 300 nM and 10 nM)”. Also, the “EGFR protein remaining, EGFR L858R/T790M double mutant” value in experiment [3] is given as “C (>80% EGFR protein remaining after 72 hours of incubation with the test compound at a concentration of 300 nM)”. For the same molecule, the IC50 in experiment [4] came out at 4.7 µM; in experiment [5], 0.83 µM; in experiment [6], 0.14 µM; in experiment [7], 0.58 µM.
For `O=C1CCC(N2C(=O)c3cccc(NCCOCCOCCOCCOCCOCC#Cc4cccc5c4C(=O)N([C@@H](C(=O)Nc4nccs4)c4cc(F)ccc4O)C5)c3C2=O)C(=O)N1` (stereo partly shown) [compound 267], the “EGFR protein remaining, EGFR L858R/T790M/C797S triple mutant” value in experiment [2] is reported as “C (>80% EGFR protein remaining after 72 hours of incubation with the test compound at a concentration of 300 nM)”. In addition, the “EGFR protein remaining, EGFR L858R/T790M double mutant” value in experiment [3] is “C (>80% EGFR protein remaining after 72 hours of incubation with the test compound at a concentration of 300 nM)”. Further, the IC50 in experiment [4] was determined as 30 µM; in experiment [5] it was 30 µM; in experiment [6], 1.4 µM; in experiment [7] it was 30 µM.
